The values below come from patent publication US20120142623A1, “Compositions And Methods For Predicting Inhibitors Of Protein Targets” (priority 2006, published 2012).

Targets include Tat (Human immunodeficiency virus type 1 group M subtype B, UniProt P04608); Reverse transcriptase (Human immunodeficiency virus type 1 group M subtype B, UniProt P04585); Integrase (Human immunodeficiency virus type 1 group M subtype B, UniProt P04585).
For the next test, the system named is HIV-1. Particulars: HIV-1, target Unknown, cited from earlier work.
The target in another test is Vpr (Human immunodeficiency virus type 1 group M subtype B, UniProt P12520). Conditions: read-out: Inhibitory effect (uM), EC50, Vpr; HIV-1 target Vpr; cited from earlier work.
The test system of test [1] is chloroquine-sensitive strain 3D7 of P. falciparum. The test is described as follows: P. falciparum growth inhibition in culture, strain 3D7. Type of test: cell-based, Plasmodium falciparum.
In test [2] the test system is chloroquine-resistant strain K1 of P. falciparum. The test can be described thus: P. falciparum growth inhibition in culture, strain K1. Type of test: cell-based, Plasmodium falciparum.
For test [3], the target named is T1, CMV protease (Human cytomegalovirus, UniProt P16753). The test is described as follows: Surface Plasmon Resonance, CMV protease. In kind it is binding. Further details: herpes simplex virus (HSV) proteases (including HSV2, VZV, EBV, CMV, and KSHV). Particulars: SPR, FIG. 4. The protocol: (§1) Four inhibitors were evaluated; our top ranking one (TMPyP4) clearly binds to all three proteases as predicted. […] A third inhibitor, GW8510, predicted to bind fails (i.e., a misprediction). […] Our inhibitor prediction is completely consistent with the observed experimental data which is verified further by cell culture studies in FIG. 4 and compared to existing antiherpes drugs.

In test [4] the target is T2, KSHV protease (Human herpesvirus 8 type P, UniProt Q2HRB6). The test can be described thus: Surface Plasmon Resonance, KSHV protease. In kind it is binding. Also noted: herpes simplex virus (HSV) proteases (including HSV2, VZV, EBV, CMV, and KSHV). Particulars: SPR, FIG. 4. As for the experimental part: as §1
The next test has as its target HSV protease. The test is described as follows: Surface Plasmon Resonance, HSV protease. Type of test: binding. Conditions: SPR, FIG. 4. The protocol: as §1
For test [5], the system named is plasmepsin enzyme target from the malarial parasite Plasmodium malariae. Conditions: complexes solved by x-ray diffraction (1msm, 2anl); cited from earlier work.
For the next test, the target named is Protease (Human immunodeficiency virus type 1 group M subtype B, UniProt P04585). Conditions: HIV-1 target Protease; read-out: Inhibitory effect (uM), IC50, Protease; cited from earlier work.
The target in the next test is T3, gp120 (Human immunodeficiency virus type 1 group M subtype B, UniProt P03375).
T3 construct: V3 region of HIV-1 envelope glycoprotein gp120 to galactosylceramide
Conditions: read-out: Inhibitory effect (uM), ED50, gp120; HIV-1 target gp120; cited from earlier work.

The target in test [6] is T2, KSHV protease. The test can be described thus: Surface Plasmon Resonance (SPR), dissociation constant for KSHV protease. Type of test: binding, Kaposi's sarcoma virus (KSHV). Further details: KSHV protease Kd (uM). From the text: (§2) The first experimental verification of our computational predictions were with TMPyP4, the top ranking inhibitor predicted to bind to all known herpesvirus proteases (see FIG. 3). This is also the inhibitor that we have characterized most computationally and experimentally, so we focus primarily on this inhibitor. […] Traditional approaches to design an inhibitor against this molecule is likely to fail since it has an extremely shallow active site pocket. However, protease dimerisation is essential for protein function and our top ranking inhibitor not only fit around the active site (covering it) but also intercolated itself in the dimer interface. Our predicted mode of action was therefore two fold: covering the surface of the active site, and inhibition of dimerisation in a reversible manner (i.e., as dimers formed, our inhibitor would bind which would disrupt the dimer, resulting in the inhibitor binding weakly and likely released, which would lead to reformation of the dimer, and so on). FIG. 3 illustrates this mode of action. […] TMPyP4 is the only known compound that is capable of inhibiting all three classes of herpesviruses.
(§3) Four inhibitors were evaluated; our top ranking one (TMPyP4) clearly binds to all three proteases as predicted. […] A third inhibitor, GW8510, predicted to bind fails (i.e., a misprediction). […]

Test [7] has as its system herpesvirus lytic phase viral growth. The test can be described thus: Herpesvirus lytic phase viral growth in vitro. In kind it is cell-based. Conditions: dose-dependent, starting at micromolar concentrations.
A further test has as its system KSHV. The test is described as follows: KSHV inhibition, different assay, fold reduction. Type of test: cell-based. Particulars: FIG. 5.
Test [8] has as its target T1, CMV protease. The test can be described thus: Surface Plasmon Resonance (SPR), dissociation constant for CMV protease. Further details: CMV protease Kd (uM). Type of test: binding.
Source text: as §2, §3

A further test has as its target T4, HSV2 protease (Human herpesvirus 2, UniProt P89449).
T4 construct: HSV2 protease Kd (uM)
The test is described as follows: Surface Plasmon Resonance (SPR), dissociation constant for HSV protease. In kind it is binding, herpes simplex virus (HSV2).
Source text: as §2, §3

A further test relates to CMV. The test is described as follows: CMV infection of HFF cells, virus titer. In kind it is cell-based. Particulars: FIG. 5.
In a further test the test system is HSV-1 strain F. The test can be described thus: HSV-1 infection of Vero cells, virus titer. In kind it is cell-based.
The test system of the next test is gp41. Particulars: HIV-1 target gp41; read-out: Inhibitory effect (uM), IC50, gp41; cited from earlier work.
Setting [9] is: HIV-1 target Tat; read-out: Inhibitory effect (uM), IC50, Tat; cited from earlier work.
Where [10] appears, read: HIV-1 target Integrase; read-out: Inhibitory effect (uM), IC50, Integrase; cited from earlier work.

Read-outs that look alike come from different tables or passages of the source.

T2 sequence (Q2HRB6 1-230): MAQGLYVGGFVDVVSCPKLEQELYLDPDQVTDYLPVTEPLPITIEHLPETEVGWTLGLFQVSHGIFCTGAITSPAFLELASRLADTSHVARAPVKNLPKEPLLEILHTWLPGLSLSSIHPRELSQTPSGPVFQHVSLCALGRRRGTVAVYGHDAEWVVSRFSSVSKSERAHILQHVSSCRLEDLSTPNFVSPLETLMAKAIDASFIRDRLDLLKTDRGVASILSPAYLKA
T1 sequence (P16753 1-256): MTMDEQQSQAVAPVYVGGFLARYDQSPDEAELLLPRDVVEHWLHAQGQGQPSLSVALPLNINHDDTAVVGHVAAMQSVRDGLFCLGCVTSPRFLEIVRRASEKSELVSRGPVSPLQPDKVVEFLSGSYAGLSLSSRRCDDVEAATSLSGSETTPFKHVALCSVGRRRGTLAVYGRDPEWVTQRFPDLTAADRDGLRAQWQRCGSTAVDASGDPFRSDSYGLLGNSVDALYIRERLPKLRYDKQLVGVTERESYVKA
Chain of Tat (P04608 whole entry): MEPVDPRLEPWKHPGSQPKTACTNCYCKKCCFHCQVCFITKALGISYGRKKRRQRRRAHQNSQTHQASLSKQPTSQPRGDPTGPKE
T4 sequence (P89449 1-247): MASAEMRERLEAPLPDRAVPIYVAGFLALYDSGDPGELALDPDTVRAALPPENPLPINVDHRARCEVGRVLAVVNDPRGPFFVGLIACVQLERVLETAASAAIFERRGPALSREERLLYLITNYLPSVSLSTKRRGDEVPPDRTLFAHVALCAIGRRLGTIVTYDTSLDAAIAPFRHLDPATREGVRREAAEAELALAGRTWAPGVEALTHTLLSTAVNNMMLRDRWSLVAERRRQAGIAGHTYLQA
Chain of Vpr (P12520 whole entry): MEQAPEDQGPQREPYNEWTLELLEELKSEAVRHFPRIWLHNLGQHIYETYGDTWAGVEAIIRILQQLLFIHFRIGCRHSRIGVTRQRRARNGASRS

Take `CCN(CC)CCCC(C)Nc1ccnc2cc(Cl)ccc12` (stereo not shown) [Chloroquine]: the IC50 is under 50 µM at Tat (read-out: Inhibitory effect (uM), IC50, Tat; HIV-1 target Tat; cited from earlier work); over 300 µM on Reverse transcriptase (read-out: Inhibitory effect (uM), IC50, Reverse transcriptase; HIV-1 target Reverse transcriptase; cited from earlier work); 5.14 µM at Integrase (read-out: Inhibitory effect (uM), IC50, Integrase; HIV-1 target Integrase; cited from earlier work).
As for `COc1cc(/C=C/C(=O)CC(=O)/C=C/c2ccc(O)c(OC)c2)ccc1O` [Curcumin], the IC50 on Tat (setting [9]) was under 30 µM.
For `CCC(C)c1c(O[C@H]2C[C@@H](O[C@H]3C[C@@H](O)[C@H](O)[C@@H](C)O3)[C@H](O)[C@@H](C)O2)cc2cc3c(c(O)c2c1O)C(=O)C(O[C@H]1C[C@@H](O[C@H]2C[C@@H](O[C@H]4C[C@@H](O[C@H]5C[C@@H](O)[C@H](O)[C@@H](C)O5)[C@H](O)[C@@H](C)O4)[C@@H](OC(C)=O)[C@@H](C)O2)[C@H](O)[C@@H](C)O1)C(C(OC)C(=O)C(O)C(C)O)C3` (stereo partly shown) [Durhamycin A], at Tat (setting [9]), the IC50 is 0.0048 µM.
For `CC(C)S(=O)(=O)n1c(N)nc2ccc(/C(=N/O)c3ccccc3)cc21` [Enviroxime], the EC50 with HIV-1 (read-out: Inhibitory effect (uM), EC50, target Unknown) was over 36.5 µM.
With `CO[C@@H]1[C@H](OC(=O)/C=C/C=C/C=C/C=C/C(=O)O)CC[C@]2(CO2)[C@H]1[C@@]1(C)O[C@@H]1CC=C(C)C` [Fumagillin], the EC50 is over 0.2 µM with HIV-1 (printed EC, read-out: Inhibitory effect (uM), EC, target Unknown) and 0.015 µM at Vpr.
Consider `O=C1Nc2ccc3ncsc3c2/C1=C/Nc1ccc(S(=O)(=O)Nc2ccccn2)cc1` [GW8510], for which the EC50 in test [1] (Table 3 section A, mean of at least two measurements, read-out: ED50 in 3D7) was 1 to 10 µM; in test [1] (Table 5, read-out: ED50 (μM) in 3D7) it was 1 to 10 µM; in [2] (Table 3 section A, mean of at least two measurements, read-out: ED50 in K1), 1 µM; in test [2] (Table 5, read-out: ED50 (μM) in K1), 1 µM. For the same compound, the “experimentally determined to work” value in test [1] (Table 5, P. falciparum ED50 in 3D7 and K1) is “N”. Besides, the “disassociation constant (Kd), CMV protease” value on CMV protease [3] is recorded as “fails”. The “disassociation constant (Kd), KSHV protease” value at KSHV protease [4] was “fails”. Moreover, the “disassociation constant (Kd), HSV protease” value on HSV protease is “fails”.
On to `CCN(CCO)CCCC(C)Nc1ccnc2cc(Cl)ccc12` (stereo not shown) [Hydroxychloroquine], for which the half-inhibitory concentration (IC50) on Integrase (setting [10]) is over 100 µM.
For `Cc1ccccc1CNC(=O)[C@H]1N(C(=O)[C@@H](O)[C@H](Cc2ccccc2)NC(=O)c2cccc(O)c2C)CSC1(C)C` [KNI-764], the “inhibition of HIV-1 protease and plasmepsin” value in test [5] was “inhibits both HIV-1 protease and the plasmepsin enzyme target”. Further, the IC50 at Protease is over 0.05 µM.
Take `CN(C)c1ccc(O)c2c1C[C@H]1C[C@H]3[C@H](N(C)C)C(O)=C(C(N)=O)C(=O)[C@@]3(O)C(O)=C1C2=O` [Minocycline]: on Reverse transcriptase (HIV-1 target Reverse transcriptase; read-out: Inhibitory effect (uM), IC50, Reverse transcriptase; cited from earlier work), the IC50 is 1200 µM.
Regarding `Cc1ccc(C(=O)Nc2ccc(S(=O)(=O)O)c3cc(S(=O)(=O)O)cc(S(=O)(=O)O)c23)cc1NC(=O)c1cccc(NC(=O)Nc2cccc(C(=O)Nc3cc(C(=O)Nc4ccc(S(=O)(=O)O)c5cc(S(=O)(=O)O)cc(S(=O)(=O)O)c45)ccc3C)c2)c1` [Suramin], on Integrase (setting [10]), the IC50 was 2.4 µM. Besides, the EC50 on gp120 was 7.7 µM.
`C[n+]1ccc(-c2c3nc(c(-c4cc[n+](C)cc4)c4ccc([nH]4)c(-c4cc[n+](C)cc4)c4nc(c(-c5cc[n+](C)cc5)c5ccc2[nH]5)C=C4)C=C3)cc1` [TMPyP4, meso-5,10,15,20-Tetrakis-(N-methyl-4-pyridyl)porphine tetratosylate]: the Kd at KSHV protease [6] was 32.8 µM; at CMV protease [8], 36 µM; at HSV2 protease it was 40 µM. The “inhibition of lytic phase viral growth” value in test [7] amounted to 90%. For the same compound, in the test with KSHV, the “inhibition of KSHV” value is reported as “inhibited KSHV”. Moreover, the EC50 in test [1] (Plasmodium falciparum, 3D7, Table 3 section A, mean of at least two measurements, read-out: ED50 in 3D7) came to 1 µM; in test [1] (Plasmodium falciparum, 3D7, Table 5, read-out: ED50 (μM) in 3D7), 1 µM; in [2] (Plasmodium falciparum, K1, Table 3 section A, mean of at least two measurements, read-out: ED50 in K1), 1 µM; in test [2] (Plasmodium falciparum, K1, Table 5, read-out: ED50 (μM) in K1) it was 1 µM. The “result of the 16 tested inhibitors in words (binding)” value in test [1] (summary of Table 5) was “moderate binding”. The “disassociation constant (Kd), CMV protease” value on CMV protease [3] was “micromolar range”. In addition, the “disassociation constant (Kd), KSHV protease” value at KSHV protease [4] is reported as “micromolar range”. Further, on HSV protease, the “disassociation constant (Kd), HSV protease” value is listed as “micromolar range”. Besides, in the test on CMV, the “inhibition of CMV, virus titer” value is “comparably or better than existing antiherpes drugs”. In addition, the “effect used together with acylovir” value with HSV-1 strain F (FIG. 5 bottom left panel, virus not named) was “almost completely eliminates all virus when used together”. Also, the “effectiveness after passage for several cycles with both acylovir and TMPyP4” value in the test with HSV-1 strain F (FIG. 5 bottom right panel, virus not named) was “still continues to be effective”. For the same compound, the “inhibition of HSV, virus titer” value with HSV-1 strain F (Vero cells, HSV-1 strain F, FIG. 5) is reported as “comparably or better than existing antiherpes drugs”.
As to Amphotericin B, in the test on gp41, the IC50 is over 10 µM.
